Measurements: patent US20220119354A1, “DIAMINO-SUBSTITUTED PYRIDINES AND PYRIMIDINES AS HERBICIDES” (FMC Corporation, priority 2019, published 2022)

Legend:
Assay type in all cases: in vivo
[1] = test system: barnyardgrass (Echinochloa crus-galli); test: Test A preemergence, barnyardgrass; settings: 0 to 100 scale, 0 is no effect, 100 is complete control
Outline: (§1)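 Pots of loam–sand mix; preemergence directed soil spray at sowing, postemergence spray at one- to two-leaf stage. Readout: visual injury vs untreated controls, ~10 d, 0–100 scale.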

[2] = test system: kochia (Kochia scoparia); test: Test A preemergence, kochia; settings: 0 to 100 scale, 0 is no effect, 100 is complete control
Outline: as §1

[3] = test system: ragweed (common ragweed, Ambrosia elatior); test: Test A preemergence, ragweed; settings: 0 to 100 scale, 0 is no effect, 100 is complete control
Outline: as §1

[4] = test system: ryegrass, Italian (Lolium multiflorum); test: Test A preemergence, Italian ryegrass; settings: 0 to 100 scale, 0 is no effect, 100 is complete control
Outline: as §1

[5] = test system: foxtail, giant (Setaria faberii); test: Test A preemergence, giant foxtail; settings: 0 to 100 scale, 0 is no effect, 100 is complete control
Outline: as §1

[6] = test system: pigweed (Amaranthus retroflexus); test: Test A preemergence, pigweed; settings: 0 to 100 scale, 0 is no effect, 100 is complete control
Outline: as §1

[7] = test system: barnyardgrass (Echinochloa crus-galli); test: Test A postemergence, barnyardgrass; settings: 0 to 100 scale, 0 no effect, 100 complete control
Outline: as §1

[8] = test system: kochia (Kochia scoparia); test: Test A postemergence, kochia; settings: 0 to 100 scale, 0 no effect, 100 complete control
Outline: as §1

[9] = test system: ragweed (common ragweed, Ambrosia elatior); test: Test A postemergence, ragweed; settings: 0 to 100 scale, 0 no effect, 100 complete control
Outline: as §1

[10] = test system: ryegrass, Italian (Lolium multiflorum); test: Test A postemergence, Italian ryegrass; settings: 0 to 100 scale, 0 no effect, 100 complete control
Outline: as §1

[11] = test system: foxtail, giant (Setaria faberii); test: Test A postemergence, giant foxtail; settings: 0 to 100 scale, 0 no effect, 100 complete control
Outline: as §1

[12] = test system: pigweed (Amaranthus retroflexus); test: Test A postemergence, pigweed; settings: 0 to 100 scale, 0 no effect, 100 complete control
Outline: as §1

[13] = test system: wheat (Triticum aestivum); test: Test A postemergence, wheat; settings: 0 to 100 scale, 0 no effect, 100 complete control
Outline: as §1

[14] = test system: corn (Zea mays); test: Test A postemergence, corn; settings: 0 to 100 scale, 0 no effect, 100 complete control
Outline: as §1

[15] = test system: blackgrass (Alopecurus myosuroides); test: Test A postemergence, blackgrass; settings: 0 to 100 scale, 0 no effect, 100 complete control
Outline: as §1

[16] = test system: galium (catchweed bedstraw, Galium aparine); test: Test A postemergence, galium; settings: 0 to 100 scale, 0 no effect, 100 complete control
Outline: as §1

[17] = test system: rice (Oryza sativa); test: Test B flooded paddy test, rice; settings: Flood, 250 g ai/ha, applied to paddy water, 2-leaf stage, visual evaluation after 13 to 15 d
Outline: (§2)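 Application was made into paddy water of pots flooded 3 cm deep at treatment, with seedlings at the 2-leaf stage. That flood level was kept throughout, and plants stayed under glass 13 to 15 d before visual assessment on a 0–100 control scale.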

[18] = test system: sedge, umbrella (small-flower umbrella sedge, Cyperus difformis); test: Test B flooded paddy test, umbrella sedge; settings: Flood, 250 g ai/ha, applied to paddy water, 2-leaf stage, visual evaluation after 13 to 15 d
Outline: as §2

[19] = test system: ducksalad (Heteranthera limosa); test: Test B flooded paddy test, ducksalad; settings: Flood, 250 g ai/ha, applied to paddy water, 2-leaf stage, visual evaluation after 13 to 15 d
Outline: as §2

[20] = test system: barnyardgrass (Echinochloa crus-galli); test: Test B flooded paddy test, barnyardgrass; settings: Flood, 250 g ai/ha, applied to paddy water, 2-leaf stage, visual evaluation after 13 to 15 d
Outline: as §2

SMILES: C[C@H](Nc1nc(N)c(C(F)(F)F)c(C(F)(F)F)n1)c1cc2ccccc2s1 [Compound 60]
- Barnyardgrass plant response rating ([1]; 125 g ai/ha): 0
- Barnyardgrass plant response rating ([1]; 500 g ai/ha): 50
- Kochia plant response rating ([2]; 125 g ai/ha): 0
- Kochia plant response rating ([2]; 500 g ai/ha): 0
- Ragweed plant response rating ([3]; 125 g ai/ha): 0
- Ragweed plant response rating ([3]; 500 g ai/ha): 0
- Ryegrass, Italian plant response rating ([4]; 125 g ai/ha): 0
- Ryegrass, Italian plant response rating ([4]; 500 g ai/ha): 20
- Foxtail, Giant plant response rating ([5]; 125 g ai/ha): 0
- Foxtail, Giant plant response rating ([5]; 500 g ai/ha): 0
- Pigweed plant response rating ([6]; 125 g ai/ha): 0
- Pigweed plant response rating ([6]; 500 g ai/ha): 0
- Plant response rating, Barnyardgrass ([7]; 125 g ai/ha): 0
- Plant response rating, Barnyardgrass ([7]; 500 g ai/ha): 50
- Plant response rating, Kochia ([8]; 125 g ai/ha): 30
- Plant response rating, Kochia ([8]; 500 g ai/ha): 100
- Plant response rating, Ragweed ([9]; 125 g ai/ha): 20
- Plant response rating, Ragweed ([9]; 500 g ai/ha): 60
- Plant response rating, Ryegrass, Italian ([10]; 125 g ai/ha): 0
- Plant response rating, Ryegrass, Italian ([10]; 500 g ai/ha): 0
- Plant response rating, Foxtail, Giant ([11]; 125 g ai/ha): 20
- Plant response rating, Foxtail, Giant ([11]; 500 g ai/ha): 50
- Plant response rating, Pigweed ([12]; 125 g ai/ha): 50
- Plant response rating, Pigweed ([12]; 500 g ai/ha): 90
- Plant response rating, Wheat ([13]; 125 g ai/ha): 0
- Plant response rating, Wheat ([13]; 500 g ai/ha): 0
- Plant response rating, Corn ([14]; 125 g ai/ha): 0
- Plant response rating, Corn ([14]; 500 g ai/ha): 0
- Plant response rating, Blackgrass ([15]; 125 g ai/ha): 0
- Plant response rating, Blackgrass ([15]; 500 g ai/ha): 20
- Plant response rating, Galium ([16]; 125 g ai/ha): 30
- Plant response rating, Galium ([16]; 500 g ai/ha): 40
- Plant response rating, Rice (0 to 100 scale, 0 is no effect, 100 is complete control) [17]: 0
- Plant response rating, Sedge, Umbrella (0 to 100 scale, 0 is no effect, 100 is complete control) [18]: 0
- Plant response rating, Ducksalad (0 to 100 scale, 0 is no effect, 100 is complete control) [19]: 0
- Plant response rating, Barnyardgrass (0 to 100 scale, 0 is no effect, 100 is complete control) [20]: 0

SMILES: CC[C@@H](Nc1ncc(C(F)(F)F)c(N)n1)c1cc2ccc(F)cc2o1 [Compound 63]
- Barnyardgrass plant response rating ([1]; 125 g ai/ha): 70
- Barnyardgrass plant response rating ([1]; 500 g ai/ha): 100
- Kochia plant response rating ([2]; 125 g ai/ha): 80
- Kochia plant response rating ([2]; 500 g ai/ha): 100
- Ragweed plant response rating ([3]; 125 g ai/ha): 50
- Ragweed plant response rating ([3]; 500 g ai/ha): 100
- Ryegrass, Italian plant response rating ([4]; 125 g ai/ha): 40
- Ryegrass, Italian plant response rating ([4]; 500 g ai/ha): 90
- Foxtail, Giant plant response rating ([5]; 125 g ai/ha): 60
- Foxtail, Giant plant response rating ([5]; 500 g ai/ha): 100
- Pigweed plant response rating ([6]; 125 g ai/ha): 90
- Pigweed plant response rating ([6]; 500 g ai/ha): 100
- Plant response rating, Barnyardgrass ([7]; 125 g ai/ha): 30
- Plant response rating, Barnyardgrass ([7]; 500 g ai/ha): 60
- Plant response rating, Kochia ([8]; 125 g ai/ha): 80
- Plant response rating, Kochia ([8]; 500 g ai/ha): 90
- Plant response rating, Ragweed ([9]; 125 g ai/ha): 30
- Plant response rating, Ragweed ([9]; 500 g ai/ha): 60
- Plant response rating, Ryegrass, Italian ([10]; 125 g ai/ha): 0
- Plant response rating, Ryegrass, Italian ([10]; 500 g ai/ha): 0
- Plant response rating, Foxtail, Giant ([11]; 125 g ai/ha): 20
- Plant response rating, Foxtail, Giant ([11]; 500 g ai/ha): 90
- Plant response rating, Pigweed ([12]; 125 g ai/ha): 100
- Plant response rating, Pigweed ([12]; 500 g ai/ha): 100
- Plant response rating, Wheat ([13]; 125 g ai/ha): 0
- Plant response rating, Wheat ([13]; 500 g ai/ha): 0
- Plant response rating, Corn ([14]; 125 g ai/ha): 0
- Plant response rating, Corn ([14]; 500 g ai/ha): 10
- Plant response rating, Blackgrass ([15]; 125 g ai/ha): 0
- Plant response rating, Blackgrass ([15]; 500 g ai/ha): 20
- Plant response rating, Galium ([16]; 125 g ai/ha): 50
- Plant response rating, Galium ([16]; 500 g ai/ha): 90
- Plant response rating, Rice (0 to 100 scale, 0 is no effect, 100 is complete control) [17]: 0
- Plant response rating, Sedge, Umbrella (0 to 100 scale, 0 is no effect, 100 is complete control) [18]: 80
- Plant response rating, Ducksalad (0 to 100 scale, 0 is no effect, 100 is complete control) [19]: 75
- Plant response rating, Barnyardgrass (0 to 100 scale, 0 is no effect, 100 is complete control) [20]: 45
